Data set [1] in a line: Solubility of budiodarone tartrate in water containing various amounts of benzyl alcohol (Example 3). The format is physicochemical. As for the experimental part: Three series of samples were prepared. […] The vials were then capped and the mixtures were vortexed on a VWR Genie 2 vortexer at maximum speed for 3×10 sec duration. The final concentrations of budiodarone were 25 mg/ml, 50 mg/ml, and 100 mg/ml in water containing benzyl alcohol from 0.5% to 11% v/v. The vials were kept in the dark for 24 hours and analyzed by HPLC as per Example 1 Conditions 1.
The results are shown in FIG. 1, where the amount of budiodarone in solution is plotted as a function of the benzyl alcohol concentration. […] For example, at 25 mg/ml, budiodarone is soluble in approximately 1.5% to 4.5% v/v of benzyl alcohol. At 50 mg/ml, budiodarone is soluble in approximately 3% to 6% benzyl alcohol. At 100 mg/ml, budiodarone is soluble in approximately 4% to 8% benzyl alcohol.

The nature of data set [2]: Solubility of budiodarone tartrate and benzyl alcohol in solvents of different ionic strengths (Example 4). The data set is classed as physicochemical. The conditions noted are these: 5/1 benzyl alcohol, nominal 25 mg/ml, 1 hour. As for the experimental part: To find out, five vials, each one containing budiodarone tartrate (200 mg, 0.234 mmoles) and benzyl alcohol (122 μl, 1.173 mmoles) were prepared. The molar ratio was therefore 5/1. To each of these vials was added 4 ml of water and the vials were vortexed, resulting in clear solutions containing 50 mg/ml of budiodarone tartrate and benzyl alcohol (molar ratio of 5/1). Then, 4 ml of one of the following solvents was added: 30 mM acetate buffer pH 5.2, 30 mM phosphate buffer saline pH 7.4, 30 mM Tris.HCl buffer pH 7.5, 1.8% sodium chloride (saline solution), and 10% dextrose solution (D10W) resulting in 15 mM concentration of buffer, 0.9% concentration of sodium chloride, and 5% concentration of dextrose (D5W), respectively.
Upon addition of an ionic solvent, all the samples except the D5W sample became turbid. The vials were then vortexed at high speed (3×10 sec) and left to stand for 1 hour. Then they were vortexed again (3×10 sec) and a 1-ml aliquot from each vial was centrifuged at 13,000 rpm for 10 min. A small aliquot of the clear supernatant was diluted 25-fold with methanol and analyzed by HPLC (Conditions 3). The remaining concentrations of budiodarone in the samples were as follows: […]

Data set [3] in a line: Solubility of budiodarone tartrate in different co-solvents (Example 5). The conditions noted are these: co-solvent 3.6% to 14.4% in water, 25 mg/ml, 24 hours. The format is physicochemical. As for the experimental part:
Co-solvents that are routinely used in injectable pharmaceutical preparations were studied. These were dimethylacetamide (DMA), dimethylsulfoxide (DMSO), ethanol (EtOH), and N-methylpyrrolidone (NMP). Samples were prepared as described in Table 4 below.
Samples were prepared by mixing all three components together as in previous examples, using a vortexer at maximum speed for 3×10 sec. Samples were then left in the dark for 24 hours and analyzed by HPLC following centrifugation to precipitate any insoluble material.

Data set [4] can be described thus: Budiodarone concentration attainable in hyperconcentrated solutions (Examples 16-18). The format is physicochemical. As for the experimental part:
The benzyl alcohol/budiodarone tartrate solution is viscous and therefore direct measurement of the budiodarone concentration is difficult. A better way to measure budiodarone concentration in the solution of benzyl alcohol and budiodarone oil or in a hyperconcentrated solution is by using an indirect method. In this example, the volume of the benzyl alcohol/budiodarone mixture was measured, which in turn allowed for the calculation of an accurate budiodarone concentration.
In each of five vials of accurately known volume, budiodarone tartrate (250 mg) and benzyl alcohol (91 μl) were mixed in order to make a 3/1 mixture (mol/mol). Then the solution was mixed thoroughly in order to make a clear solution. This was aided with the help of warming to 50° C. for 3 minutes in order to reduce the viscosity of the mixture. The weight of the vial containing the 3:1 mixture of benzyl alcohol/budiodarone was then recorded. Vial number 1 was filled with silicon oil of density d=0.964 and weighed again. The difference in weight provided the weight of the silicon oil added. This, divided by the density of the silicon oil provided the volume of silicon oil necessary to fill the vial. The difference with the known volume of the vial represents the volume of the benzyl alcohol/budiodarone mixture. To Vial numbers 2, 3, 4, and 5 was added 50, 100, 200, and 400 μl of water, respectively. The contents of the vials were then thoroughly mixed in order to get hyperconcentrated solutions of different volumes and different budiodarone concentrations. The volumes of these hyperconcentrations using silicon oil were measured as described above.
The same experiment as Example 16 was replicated, using mixtures of 5/1 ratio (250 mg of budiodarone tartrate and 152 μl of benzyl alcohol) and various volumes of water added. Using the same procedure as Example 16, a maximum calculated budiodarone concentration of 737 mg/ml and a maximum benzyl alcohol concentration of 45% (v/v) were found.
Similarly, the experiment in Example 16 was replicated, using a 1/1 mixture (250 mg of budiodarone tartrate and 30 μl of benzyl alcohol). A maximum calculated budiodarone concentration of 1,136 mg/ml and a maximum benzyl alcohol concentration of 13.6% (v/v) were found.

For data set [5] the following is noted: cited from earlier work; for tolerability: oral, up to 600 mg BID.
Data set [6] concerns the target cytochrome P450 2C9 (CYP2C9) (Homo sapiens, UniProt P11712). To be noted: cited from earlier work.
The conditions of data set [7]: pre-clinical safety testing; cited from earlier work.

Data on one compound can be found in US20140309296A1, “BUDIODARONE FORMULATIONS” (Armetheon, Inc., priority 2013, published 2014).

Read-outs that look alike come from different tables or passages of the source.

cytochrome P450 2C9 (CYP2C9), sequence (P11712 whole entry): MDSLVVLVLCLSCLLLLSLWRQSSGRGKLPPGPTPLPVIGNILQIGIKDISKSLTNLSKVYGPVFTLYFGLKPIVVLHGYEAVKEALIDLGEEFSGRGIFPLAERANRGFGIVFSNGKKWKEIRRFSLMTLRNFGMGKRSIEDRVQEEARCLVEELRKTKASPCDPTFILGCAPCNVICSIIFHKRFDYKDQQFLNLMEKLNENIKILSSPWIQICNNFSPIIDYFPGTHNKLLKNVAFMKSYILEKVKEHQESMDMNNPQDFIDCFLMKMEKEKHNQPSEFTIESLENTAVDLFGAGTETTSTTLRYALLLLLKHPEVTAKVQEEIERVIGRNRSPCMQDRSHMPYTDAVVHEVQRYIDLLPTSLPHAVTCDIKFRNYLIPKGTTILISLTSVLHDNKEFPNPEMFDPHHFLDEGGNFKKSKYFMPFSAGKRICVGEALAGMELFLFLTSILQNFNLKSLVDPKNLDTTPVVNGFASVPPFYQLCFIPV

On to `CC[C@H](C)OC(=O)Cc1oc2ccccc2c1C(=O)c1cc(I)c(OCCN(CC)CC)c(I)c1` [budiodarone, (1S)-1-methylpropyl 2-(3-{4-[2-(diethylamino)ethoxy]-3,5-diiodobenzoyl}benzofuran-2-yl)acetate], for which, in data set [1], the “molar ratio above which budiodarone was not fully soluble in water (phase separation)” value was “approximately 11/1”. In data set [1] (25-100 mg/ml), the “lower limit of the molar ratio of benzyl alcohol to budiodarone that forms in solution” value is listed as “approximately 5/1”. The “remaining concentration of budiodarone” value in data set [2] (0.9% saline solution) is less than 1 mg/mL; in data set [2] (Acetate buffer pH5.2 (15 mM)), less than 1 mg/mL; in data set [2] (D5W) it was 26.6 mg/mL; in data set [2] (Phosphate buffer saline pH 7.4 (15 mM)), less than 1 mg/mL; in data set [2] (Tris.HCl buffer pH7.5 (15 mM)), less than 1 mg/mL. Also, the “amount of solubilized budiodarone in the presence of DMA, DMSO, EtOH, or NMP” value in data set [3] is on record as “not significantly different from the amount solubilized in water alone”. The “maximum calculated budiodarone concentration” value in data set [4] (1/1 mixture) is 1,136 mg/ml; in data set [4] (5/1 ratio), 737 mg/mL. The “calculated maximum budiodarone concentration” value in data set [4] (3:1 molar ratio of benzyl alcohol/budiodarone) was 890 mg/mL. The creatinine entry in data set [5] (BUN unchanged) is recorded as “reversible elevation”. Further, the ALT entry in data set [5] (appeared to be dose related) is “mild, reversible increase”. In addition, the tolerability result in data set [5] is “safe and well tolerated”; in data set [5] (listed as ATI-2042), “well tolerated”. Further, the tissue accumulation result in data set [5] (slit lamp examination at the end of the treatment period) is recorded as “no evidence of budiodarone tissue accumulation”. Also, the corneal deposits result in data set [5] (slit-lamp examinations) is “No patient treated with ATI-2042 developed corneal deposits”. Also, the “inhibition of CYP2C9” value in data set [6] is recorded as “inhibitor”. The “findings in canine testes” value in data set [7] is recorded as “Non-specific but potentially toxic findings”.
